Assay results from patent publication US8404643B2, “Metastin derivatives and use thereof” (priority 2005, dated 2013).
Square brackets hold non-standard residues; d marks the D form. Peptide text beside a SMILES is read from it. Phe(4-Cl) = N[C@@H](Cc1ccc(Cl)cc1)C(=O)O; Phe(3-F) = N[C@@H](Cc1cccc(F)c1)C(=O)O; Phe(2-F) = N[C@@H](Cc1ccccc1F)C(=O)O; Arg(Me) = CNC(=N)NCCC[C@H](N)C(=O)O; His(π-Me) = Cn1cncc1C[C@H](N)C(=O)O; Hyp = O=C(O)[C@@H]1C[C@@H](O)CN1; Pip(4-aza) = O=C(O)[C@@H]1CNCCN1; Orn = NCCC[C@H](N)C(=O)O; Aib = CC(C)(N)C(=O)O; azaGly = NNC(=O)O

target: T1, hOT7T175 (Homo sapiens, UniProt Q969F8); test: Assay for intracellular Ca ion level-increasing activity using FLIPR; assay type: cell-based; conditions: hOT7T175/CHO cells, relative to Metastin (1-54)
T1 construct: expressed in transfected cells
T1 sequence (Q969F8 whole entry L364H): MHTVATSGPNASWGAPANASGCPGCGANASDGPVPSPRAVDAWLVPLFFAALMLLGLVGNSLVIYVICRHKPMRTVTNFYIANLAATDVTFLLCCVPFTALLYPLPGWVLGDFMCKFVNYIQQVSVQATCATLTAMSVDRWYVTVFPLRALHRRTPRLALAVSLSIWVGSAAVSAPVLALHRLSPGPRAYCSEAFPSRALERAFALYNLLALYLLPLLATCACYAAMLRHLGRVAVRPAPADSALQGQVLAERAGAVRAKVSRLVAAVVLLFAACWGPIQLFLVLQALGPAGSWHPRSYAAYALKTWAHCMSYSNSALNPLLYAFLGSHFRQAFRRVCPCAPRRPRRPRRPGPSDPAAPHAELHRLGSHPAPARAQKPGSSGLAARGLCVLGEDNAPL
How it was run: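 CHO/dhfr− cells stably transfected with hOT7T175, selected for high metastin response, loaded with Fluo3-AM for 1 h at 37 °C in HANKS/HBSS (pH 7.4) with probenecid. Peptides were diluted from 1×10^−3 M DMSO stock into HANKS/HBSS with 2.5 mM probenecid, 0.2% BSA, 0.1% CHAPS; intracellular Ca rise read by FLIPR.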

SMILES	Specific Activity: intracellular Ca ion level-increasing activity [specific activity to Metastin (1-54)]
CNC(=N)NCCC[C@H](NC(=O)[C@H](CC(C)C)NC(=O)NNC(=O)[C@H](Cc1ccccc1F)NC(=O)[C@@H](NC(=O)[C@H](CC(N)=O)NC(=O)[C@H](CCC(=O)O)NC(=O)[C@@H](Cc1ccc(O)cc1)NC(C)=O)[C@@H](C)O)C(=O)N[C@@H](Cc1c[nH]c2ccccc12)C(N)=O [Compound No. 755, Ac-D-Tyr-Glu-Asn-Thr-Phe(2F)-AzaGly-Leu-Arg(Me)-Trp-NH2] (Ac-[dY]ENT[Phe(2-F)][azaGly]L[Arg(Me)]W-NH2)	3.5
CNC(=N)NCCC[C@H](NC(=O)[C@H](CC(C)C)NC(=O)NNC(=O)[C@H](Cc1cccc(F)c1)NC(=O)[C@@H](NC(=O)[C@H](CC(N)=O)NC(=O)[C@H](CCCCN)NC(=O)[C@@H](Cc1ccc(O)cc1)NC(C)=O)[C@@H](C)O)C(=O)N[C@@H](Cc1c[nH]c2ccccc12)C(N)=O [Compound No. 756, Ac-D-Tyr-Lys-Asn-Thr-Phe(3F)-AzaGly-Leu-Arg(Me)-Trp-NH2] (Ac-[dY]KNT[Phe(3-F)][azaGly]L[Arg(Me)]W-NH2)	2.4
CNC(=N)NCCC[C@H](NC(=O)[C@H](CC(C)C)NC(=O)NNC(=O)[C@H](Cc1cccc(F)c1)NC(=O)[C@@H](NC(=O)[C@H](CC(N)=O)NC(=O)[C@H](CCC(=O)O)NC(=O)[C@@H](Cc1ccc(O)cc1)NC(C)=O)[C@@H](C)O)C(=O)N[C@@H](Cc1c[nH]c2ccccc12)C(N)=O [Compound No. 757, Ac-D-Tyr-Glu-Asn-Thr-Phe(3F)-AzaGly-Leu-Arg(Me)-Trp-NH2] (Ac-[dY]ENT[Phe(3-F)][azaGly]L[Arg(Me)]W-NH2)	2.7
CNC(=N)NCCC[C@H](NC(=O)[C@H](CC(C)C)NC(=O)NNC(=O)[C@H](Cc1ccc(Cl)cc1)NC(=O)[C@@H](NC(=O)[C@H](CC(N)=O)NC(=O)[C@H](CCCCN)NC(=O)[C@@H](Cc1ccc(O)cc1)NC(C)=O)[C@@H](C)O)C(=O)N[C@@H](Cc1c[nH]c2ccccc12)C(N)=O [Compound No. 758, Ac-D-Tyr-Lys-Asn-Thr-Phe(4Cl)-AzaGly-Leu-Arg(Me)-Trp-NH2] (Ac-[dY]KNT[Phe(4-Cl)][azaGly]L[Arg(Me)]W-NH2)	1.8
CNC(=N)NCCC[C@H](NC(=O)[C@H](CC(C)C)NC(=O)NNC(=O)[C@H](Cc1ccc(Cl)cc1)NC(=O)[C@@H](NC(=O)[C@H](CC(N)=O)NC(=O)[C@H](CCC(=O)O)NC(=O)[C@@H](Cc1ccc(O)cc1)NC(C)=O)[C@@H](C)O)C(=O)N[C@@H](Cc1c[nH]c2ccccc12)C(N)=O [Compound No. 759, Ac-D-Tyr-Glu-Asn-Thr-Phe(4Cl)-AzaGly-Leu-Arg(Me)-Trp-NH2] (Ac-[dY]ENT[Phe(4-Cl)][azaGly]L[Arg(Me)]W-NH2)	1.9
CNC(=N)NCCC[C@H](NC(=O)[C@H](CC(C)C)NC(=O)NNC(=O)[C@H](Cc1ccccc1)NC(=O)[C@@H](NC(=O)[C@H](CC(N)=O)NC(=O)[C@@H]1CNCCN1C(=O)[C@@H](Cc1ccc(O)cc1)NC(C)=O)[C@@H](C)O)C(=O)N[C@@H](Cc1c[nH]c2ccccc12)C(N)=O [Compound No. 760, Ac-D-Tyr-Pzc(2)-Asn-Thr-Phe-AzaGly-Leu-Arg(Me)-Trp-NH2] (Ac-[dY][Pip(4-aza)]NTF[azaGly]L[Arg(Me)]W-NH2)	1.7
CNC(=N)NCCC[C@H](NC(=O)[C@H](CC(C)C)NC(=O)NNC(=O)[C@H](Cc1ccccc1F)NC(=O)[C@@H](NC(=O)[C@H](CC(N)=O)NC(=O)[C@@H]1C[C@@H](O)CN1C(=O)[C@@H](Cc1ccc(O)cc1)NC(C)=O)[C@@H](C)O)C(=O)N[C@@H](Cc1c[nH]c2ccccc12)C(N)=O [Compound No. 763, Ac-D-Tyr-Hyp-Asn-Thr-Phe(2F)-AzaGly-Leu-Arg(Me)-Trp-NH2] (Ac-[dY][Hyp]NT[Phe(2-F)][azaGly]L[Arg(Me)]W-NH2)	6.4
CNC(=N)NCCC[C@H](NC(=O)[C@H](CC(C)C)NC(=O)NNC(=O)[C@H](Cc1ccccc1F)NC(=O)[C@@H](NC(=O)[C@H](CC(N)=O)NC(=O)[C@H](Cc1c[nH]c2ccccc12)NC(=O)[C@@H](Cc1ccc(O)cc1)NC(C)=O)[C@@H](C)O)C(=O)N[C@@H](Cc1c[nH]c2ccccc12)C(N)=O [Compound No. 764, Ac-D-Tyr-Trp-Asn-Thr-Phe(2F)-AzaGly-Leu-Arg(Me)-Trp-NH2] (Ac-[dY]WNT[Phe(2-F)][azaGly]L[Arg(Me)]W-NH2)	1.5
CNC(=N)NCCC[C@H](NC(=O)[C@H](CC(C)C)NC(=O)NNC(=O)[C@H](Cc1cccc(F)c1)NC(=O)[C@@H](NC(=O)[C@H](CC(N)=O)NC(=O)[C@@H]1C[C@@H](O)CN1C(=O)[C@@H](Cc1ccc(O)cc1)NC(C)=O)[C@@H](C)O)C(=O)N[C@@H](Cc1c[nH]c2ccccc12)C(N)=O [Compound No. 765, Ac-D-Tyr-Hyp-Asn-Thr-Phe(3F)-AzaGly-Leu-Arg(Me)-Trp-NH2] (Ac-[dY][Hyp]NT[Phe(3-F)][azaGly]L[Arg(Me)]W-NH2)	2.6
CNC(=N)NCCC[C@H](NC(=O)[C@H](CC(C)C)NC(=O)NNC(=O)[C@H](Cc1cccc(F)c1)NC(=O)[C@@H](NC(=O)[C@H](CC(N)=O)NC(=O)[C@H](Cc1c[nH]c2ccccc12)NC(=O)[C@@H](Cc1ccc(O)cc1)NC(C)=O)[C@@H](C)O)C(=O)N[C@@H](Cc1c[nH]c2ccccc12)C(N)=O [Compound No. 766, Ac-D-Tyr-Trp-Asn-Thr-Phe(3F)-AzaGly-Leu-Arg(Me)-Trp-NH2] (Ac-[dY]WNT[Phe(3-F)][azaGly]L[Arg(Me)]W-NH2)	0.2
CNC(=N)NCCC[C@H](NC(=O)[C@H](CC(C)C)NC(=O)NNC(=O)[C@H](Cc1ccc(Cl)cc1)NC(=O)[C@@H](NC(=O)[C@H](CC(N)=O)NC(=O)[C@@H]1C[C@@H](O)CN1C(=O)[C@@H](Cc1ccc(O)cc1)NC(C)=O)[C@@H](C)O)C(=O)N[C@@H](Cc1c[nH]c2ccccc12)C(N)=O [Compound No. 767, Ac-D-Tyr-Hyp-Asn-Thr-Phe(4Cl)-AzaGly-Leu-Arg(Me)-Trp-NH2] (Ac-[dY][Hyp]NT[Phe(4-Cl)][azaGly]L[Arg(Me)]W-NH2)	1.5
CNC(=N)NCCC[C@H](NC(=O)[C@H](CC(C)C)NC(=O)NNC(=O)[C@H](Cc1ccc(Cl)cc1)NC(=O)[C@@H](NC(=O)[C@H](CC(N)=O)NC(=O)[C@H](Cc1c[nH]c2ccccc12)NC(=O)[C@@H](Cc1ccc(O)cc1)NC(C)=O)[C@@H](C)O)C(=O)N[C@@H](Cc1c[nH]c2ccccc12)C(N)=O [Compound No. 768, Ac-D-Tyr-Trp-Asn-Thr-Phe(4Cl)-AzaGly-Leu-Arg(Me)-Trp-NH2] (Ac-[dY]WNT[Phe(4-Cl)][azaGly]L[Arg(Me)]W-NH2)	0.6
CNC(=N)NCCC[C@H](NC(=O)[C@H](CC(C)C)NC(=O)NNC(=O)[C@H](Cc1ccc(Cl)cc1)NC(=O)[C@@H](NC(=O)[C@H](CC(N)=O)NC(=O)CNC(=O)[C@@H](Cc1ccc(O)cc1)NC(C)=O)[C@@H](C)O)C(=O)N[C@@H](Cc1c[nH]c2ccccc12)C(N)=O [Compound No. 769, Ac-D-Tyr-Gly-Asn-Thr-Phe(4Cl)-AzaGly-Leu-Arg(Me)-Trp-NH2] (Ac-[dY]GNT[Phe(4-Cl)][azaGly]L[Arg(Me)]W-NH2)	1.5
CNC(=N)NCCC[C@H](NC(=O)[C@H](CC(C)C)NC(=O)NNC(=O)[C@H](Cc1ccc(Cl)cc1)NC(=O)[C@@H](NC(=O)[C@H](CC(N)=O)NC(=O)C(C)(C)NC(=O)[C@@H](Cc1ccc(O)cc1)NC(C)=O)[C@@H](C)O)C(=O)N[C@@H](Cc1c[nH]c2ccccc12)C(N)=O [Compound No. 770, Ac-D-Tyr-Aib-Asn-Thr-Phe(4Cl)-AzaGly-Leu-Arg(Me)-Trp-NH2] (Ac-[dY][Aib]NT[Phe(4-Cl)][azaGly]L[Arg(Me)]W-NH2)	2.6
CNC(=N)NCCC[C@H](NC(=O)[C@H](CC(C)C)NC(=O)NNC(=O)[C@H](Cc1ccccc1)NC(=O)[C@@H](NC(=O)[C@H](CC(N)=O)NC(=O)[C@H](CCCN)NC(=O)[C@@H](Cc1ccc(O)cc1)NC(C)=O)[C@@H](C)O)C(=O)N[C@@H](Cc1c[nH]c2ccccc12)C(N)=O [Compound No. 771, Ac-D-Tyr-Orn-Asn-Thr-Phe-AzaGly-Leu-Arg(Me)-Trp-NH2] (Ac-[dY][Orn]NTF[azaGly]L[Arg(Me)]W-NH2)	1.9
CNC(=N)NCCC[C@H](NC(=O)[C@H](CC(C)C)NC(=O)NNC(=O)[C@H](Cc1ccccc1)NC(=O)[C@@H](NC(=O)[C@H](CC(N)=O)NC(=O)[C@@H](NC(=O)[C@@H](Cc1ccc(O)cc1)NC(C)=O)[C@@H](C)O)[C@@H](C)O)C(=O)N[C@@H](Cc1c[nH]c2ccccc12)C(N)=O [Compound No. 772, Ac-D-Tyr-Thr-Asn-Thr-Phe-AzaGly-Leu-Arg(Me)-Trp-NH2] (Ac-[dY]TNTF[azaGly]L[Arg(Me)]W-NH2)	1.3
CNC(=N)NCCC[C@H](NC(=O)[C@H](CC(C)C)NC(=O)NNC(=O)[C@H](Cc1ccccc1)NC(=O)[C@@H](NC(=O)[C@H](CC(N)=O)NC(=O)[C@H](Cc1cncn1C)NC(=O)[C@@H](Cc1ccc(O)cc1)NC(C)=O)[C@@H](C)O)C(=O)N[C@@H](Cc1c[nH]c2ccccc12)C(N)=O [Compound No. 773, Ac-D-Tyr-His(3Me)-Asn-Thr-Phe-AzaGly-Leu-Arg(Me)-Trp-NH2] (Ac-[dY][His(π-Me)]NTF[azaGly]L[Arg(Me)]W-NH2)	1.1
